Test results reported in PMC7395068, “The evolution of strategies to minimise the risk of human drug-induced liver injury (DILI) in drug discovery and development” (Archives of Toxicology, 2020).
Where two headings read alike, the source gives them in different places.

Columns and labels:
HepG2 cells [1] = settings: cited from earlier work
PHH liver spheroid = test system: PHH liver spheroid; set-up: method as in Foster et al. 2019; settings: liver-chip of comparable sensitivity, ref Foster et al. 2019; cited from earlier work
hLiMTs = test: Combined HCI (HCS) and cellular ATP 3D assay in hLiMTs
[2] = plasma free fraction; cited from earlier work
[3] = test system: THLE-Null and THLE-3A4 cells; settings: In vitro Assay; ref Gustafsson 2014; cited from earlier work
[4] = cited from earlier work
[5] = phase I clinical trials; ref Manning and Swartz 1995; McKenzie et al. 1995; cited from earlier work
PHH spheroids [6] = settings: cited from earlier work
[7] = Plasma free fraction (fu) and unbound Cmax (Cmax,u); assay type: in vitro ADME, human; settings: unbound plasma Cmax
Experimental: The prediction of DILI severity was evaluated further using the 3D combined HCI assays using plasma-free fraction. The majority of fu values were obtained from literature, when unavailable in-house prediction was utilised. Unbound plasma Cmax concentrations (Cmax,u) were derived by multiplying total plasma Cmax with the corresponding free fraction (fu) for each compound.

[8] = cited from earlier work; remark: listed apart in the source
rBsep [9] = settings: In vitro Assay; ref Dawson 2012; cited from earlier work
PHH spheroids [10] = test system: PHH spheroids; set-up: method as in Bell et al. 2016; settings: 48-h exposure; ref Bell et al. 2016; cited from earlier work
HepG2 cells [11] = settings: cited from earlier work; remark: listed apart in the source
HepG2 cells [12] = settings: cited from earlier work; remark: listed apart in the source
HepaRG spheroids = test: Combined HCI (HCS) and cellular ATP 3D assay in HepaRG spheroids; settings: for AC50 / minimal effective concentration: Homo sapiens
[13] = read-out: Human plasma Cmax; total plasma Cmax.tot, median of 9 literature references; cited from earlier work
rBsep [14] = test system: rBsep; set-up: method as in Dawson 2012; settings: ref Dawson 2012, cited from earlier work
[15] = In vitro Assay, ref Persson 2013
[16] = Microtissue model structural based (HCI), combined HCS and ATP, MEC < 25 × Cmax.tot cut-off

O=c1[nH]c(=O)n([C@@H]2O[C@H](CO)[C@@H](O)[C@@H]2F)cc1I [fialuridine]
Cluser analysis (HepG2 cells [1]; [15]): -VE | Structural based (HCI) (HepG2 cells [1]; [15]): +VE | DILI in vitro assay prediction, Persson (2013) (HepG2 cells [1]; Structural based (HCI), HepG2, ref Persson et al. 2013): -VE | detection in 3D microtissues (PHH liver spheroid): detected | AC50 (hLiMTs; Homo sapiens, read-out: ATP endpoint AC50): 6.3 µM | minimal effective concentration (hLiMTs; Homo sapiens, read-out: ATP endpoint MEC): 0.932 µM | minimal effective concentration (hLiMTs; Homo sapiens, read-out: HCS endpoint MEC): 6.54 µM | DILI prediction hLiMTs (HCS-MEC) (hLiMTs; [16]): +VE (MEC < 25 × Cmax.tot cut-off) | hLiMTs <25x Avg Cmax ATP (hLiMTs; hLiMTs, ATP endpoint, cut-off <25x Avg Cmax): +ve | hLiMTs <100x Avg Cmaxu ATP (hLiMTs; hLiMTs, ATP endpoint, cut-off <100x Avg Cmaxu): +ve (<100x Avg Cmaxu) | hLiMTs <25x Avg Cmax HCS (hLiMTs; hLiMTs, HCS endpoints, cut-off <25x Avg Cmax): +ve | hLiMTs <100x Avg Cmaxu HCS (hLiMTs; hLiMTs, HCS endpoints, cut-off <100x Avg Cmaxu): +ve (<100x Avg Cmaxu) | hLiMTs <25x Avg Cmax All (hLiMTs; hLiMTs, all endpoints (ATP and HCS), cut-off <25x Avg Cmax): +ve | hLiMTs Cmax max All (hLiMTs; hLiMTs, all endpoints, Cmax max used): +ve | hLiMTs Cmax min All (hLiMTs; hLiMTs, all endpoints, Cmax min used): +ve | hLiMTs <10 uM All (hLiMTs; hLiMTs, all endpoints, cut-off <10 uM): +ve (<10 uM) | hLiMTs <100x Avg Cmaxu All (hLiMTs; hLiMTs, all endpoints, cut-off <100x Avg Cmaxu): +ve (<100x Avg Cmaxu) | fu [2]: 0.360 | THLE-Null [3]: -VE | THLE-Null/3A4 [3]: -VE | Assigned DILI category ([4]; Chen et al. 2016 or literature alignment, ref Chen et al. 2016): 3 | In vivo DILI ([4]; ref Dawson 2012): +VE | In vivo DILI ([4]; ref Gustafsson 2014): +VE | In vivo DILI ([4]; ref O'Brien 2006): +VE | In vivo DILI ([4]; ref Persson 2013): +VE | In vivo DILI ([4]; ref Tolosa 2012): +VE | In vivo DILI ([4]; ref Vorrink 2018): +VE | clinical liver finding [5]: fatal hepatotoxicity | hLiMTs ATP <20 x Cmax (PHH spheroids [6]; In vitro Assay, ref Vorrink 2018): +VE (IC20 < 20 × Cmax.tot cut-off) | DILI in vitro assay prediction, Vorrink (2018) (PHH spheroids [6]; PHH spheroids, ATP, 14 days, IC20 < 20 × Cmax.tot, ref Vorrink et al. 2018): +VE (IC20 < 20 × Cmax.tot cut-off) | Human plasma Cmax,u [7]: 295 nM | DILI severity category (Chen et al. [2016]) ([8]; LTKB DILIrank category, ref Chen et al. 2016): Most | DILI severity category (Chen 2016) ([8]; human DILI classification, LTKB DILIrank, ref Chen et al. 2016): Most | DILI severity category ([8]; human DILI severity, ref Chen et al.): Most | DILI +VE (5-8), DILI -VE (-4) ([8]; ref Chen 2016): +VE | DILI severity category ([8]; ref Chen 2016): vMost-DILI-Concern | Inhibition of rBsep cutoff<1& cmax u>.2 (rBsep [9]): -VE | Inhibition of rBsep cutoff<3 (rBsep [9]): -VE | toxicity in PHH spheroids (PHH spheroids [10]): no toxicity | Structural based (HCI) (HepG2 cells [11]; In vitro Assay, ref Tolosa 2012): +VE | DILI in vitro assay prediction, Tolosa (2012) (HepG2 cells [11]; Structural based (HCI), HepG2, ref Tolosa et al. 2012): +VE | Structural based (HCI) (HepG2 cells [12]; In vitro Assay, ref O'Brien 2006): +VE | DILI in vitro assay prediction, O'Brien (2006) (HepG2 cells [12]; Structural based (HCI), HepG2, ref O'Brien et al. 2006): +VE (lowest HCI endpoint IC50 (or in the absence of dose–response < 100 µM) < 30 × total human plasma exposure levels (Cmax.tot)) | HepaRG <25x Avg Cmax ATP (HepaRG spheroids; HepaRG, ATP endpoint, cut-off <25x Avg Cmax): +ve | HepaRG <100x Avg Cmaxu ATP (HepaRG spheroids; HepaRG, ATP endpoint, cut-off <100x Avg Cmaxu): +ve (<100x Avg Cmaxu) | HepaRG <25x Avg Cmax HCS (HepaRG spheroids; HepaRG, HCS endpoints, cut-off <25x Avg Cmax): +ve | HepaRG <100x Avg Cmaxu HCS (HepaRG spheroids; HepaRG, HCS endpoints, cut-off <100x Avg Cmaxu): +ve (<100x Avg Cmaxu) | HepaRG <25x Avg Cmax All (HepaRG spheroids; HepaRG, all endpoints (ATP and HCS), cut-off <25x Avg Cmax): +ve | HepaRG Cmax max All (HepaRG spheroids; HepaRG, all endpoints, Cmax max used): +ve | HepaRG Cmax min All (HepaRG spheroids; HepaRG, all endpoints, Cmax min used): +ve | HepaRG <10 uM All (HepaRG spheroids; HepaRG, all endpoints, cut-off <10 uM): +ve (<10 uM) | HepaRG <100x Avg Cmaxu All (HepaRG spheroids; HepaRG, all endpoints, cut-off <100x Avg Cmaxu): +ve (<100x Avg Cmaxu) | AC50 (HepaRG spheroids; HepaRG, read-out: ATP endpoint AC50): 9.16 µM | minimal effective concentration (HepaRG spheroids; HepaRG, read-out: ATP endpoint MEC): 1.28 µM | AC50 (HepaRG spheroids; HepaRG, read-out: HCS endpoint AC50): 115 µM | minimal effective concentration (HepaRG spheroids; HepaRG, read-out: HCS endpoint MEC): 5.78 µM | DILI prediction HepaRG spheroids (HCS-MEC) (HepaRG spheroids; [16]): +VE (MEC < 25 × Cmax.tot cut-off) | Cmax [13]: 820 nM

CO[C@H]1/C=C/O[C@@]2(C)Oc3c(C)c(O)c4c(O)c(cc(O)c4c3C2=O)NC(=O)/C(C)=C\C=C\[C@H](C)[C@H](O)[C@@H](C)[C@@H](O)[C@@H](C)[C@H](OC(C)=O)[C@@H]1C [rifamycin SV]
Inhibition of rBsep cutoff<1& cmax u>.2 (rBsep [14]; cutoff<1& cmax u>.2): +VE | Inhibition of rBsep cutoff<3 (rBsep [14]; cutoff<3): +VE | In vivo DILI ([4]; assignment in Dawson 2012, ref Dawson 2012): +VE
